Consider two substances from patent publication US20130065227A1, “METHODS OF INCREASING MACROPINOCYTOSIS IN CANCER CELLS” (priority 2010, published 2013).

{Fluor} = fluorophore: 5-carboxyfluorescein (FAM) or Alexa Fluor 488

Holding throughout (format): cell-based
One data set deals with U937 leukemia cells. The data set can be described thus: Cell death mechanism (DNA laddering, immunoblotting, electron microscopy). The procedure: (A) Trypan blue staining of U937 leukemia cells showing percentage of dead cells (trypan blue positive) over time. (B) U937 cells were untreated (Un) or treated with 1 μM AS1411 (1411) or control oligonucleotide (Ctrl) for 72 h. DNA was extracted, electrophoresed on an agarose gel and stained with ethidium bromide to probe DNA laddering. As a positive control, […] were treated with UV irradiation to induce apoptosis as previously described. […] (D) U937 cells treated as described for panel B, followed by protein extraction and immunoblotting (IB) to detect PARP cleavage and Caspase-3 activation. (E) DU145 prostate cancer cells were incubated with 10 μM of AS1411 for 24 h, or irradiated with UV (300 J/m^2 with UV Stratalinker 2400, Strategene), then cultured in fresh medium for 6 h. Assessment of cell death was carried out by flow cytometry to detect Annexin V-FITC binding and PI staining.
In general terms: In western blotting, separated proteins are transferred to a membrane and probed.

The subject of another data set is MCF7. The data set can be described thus: Cell response to AS1411. To be noted: Cancer, breast. The text has this: (§1) It has recently been discovered that AS1411 can stimulate macropinocytosis (MP) in cancer cells and this finding was verified by several different methods and in multiple cancer cell lines (Table 1).
In data set [1] the test system is RCC4. The data set can be described thus: Cell response to AS1411. To be noted: Cancer, renal cell.
From the text: as §1

In data set [2] the test system is BEAS2B. The data set can be described thus: Cell response to AS1411. To be noted: Non-cancer, lung epithelial.
From the text: as §1

For data set [3], the system named is A549. The experiment in a line: Cell response to AS1411. The note with it: Cancer, non-small cell lung.
From the text: as §1

Another data set deals with DU145. The experiment in a line: Cell response to AS1411.
From the text: as §1

The test system of another data set is MDA-MB-231. The experiment in a line: Cell response to AS1411. To be noted: Cancer, breast.
From the text: as §1

The subject of another data set is SK-N-DZ. The experiment in a line: Cell response to AS1411. The note with it: Cancer, neuroblastoma.
From the text: as §1

Data set [4] concerns RWPE1. The experiment in a line: Cell response to AS1411. The note with it: Non-cancer, prostate epithelial.
From the text: as §1

For data set [5], the system named is CHO. The experiment in a line: Cell response to AS1411. The note with it: Non-cancer, hamster ovary.
From the text: as §1

Data set [6] relates to RCC4. The data set can be described thus: Uptake of AS1411 by macropinocytosis (MP). The note with it: Cancer, renal cell.
From the text: as §1

Data set [7] deals with BEAS2B. The data set can be described thus: Uptake of AS1411 by macropinocytosis (MP). The note with it: Non-cancer, lung epithelial.
From the text: as §1

The test system of data set [8] is A549. The data set can be described thus: Uptake of AS1411 by macropinocytosis (MP). To be noted: Cancer, non-small cell lung.
From the text: as §1

The test system of data set [9] is RWPE1. The experiment in a line: Uptake of AS1411 by macropinocytosis (MP). To be noted: Non-cancer, prostate epithelial.
From the text: as §1

Data set [10] relates to CHO. The data set can be described thus: Uptake of AS1411 by macropinocytosis (MP). The note with it: Non-cancer, hamster ovary.
From the text: as §1

Another data set relates to Cells. The data set can be described thus: Antiproliferative MTT assay (FIG. 7). The procedure: FIG. 7 are graphs showing the results of comparative experiments. (Panel A) Cells were plated in 96-well plates at low density (1,000 cells per well) and incubated 18 hrs at 37° C. to allow adherence. Cells were treated by addition of different concentrations of AS1411 (obtained from Antisoma), AS1411 (obtained from Invitrogen), tAS1411, FL-AS1411, CRO, or tCRO directly to the medium, and proliferation was measured using a 3-(4,5-dimethylthiazol-2-yl)-2,5-diphenyltetrazolium bromide assay as described previously (Bates et al., 1999, J. Biol. Chem., 274:26369-77). Points represent mean of triplicate samples with SE. (Panel B) 10 μM FL-AS1411 or 10 μM FL-CRO were added to DU145 cells plated on 6-well plates. After incubation at 37° C. for 2 hrs, cells were washed twice with ice-cold PBS and harvested by trypsin treatment. Some cells were washed twice with ice-cold PBS containing dextran sulfate ([…]) or trypan blue ([…], pH 4.4). Cells were resuspended in ice-cold PBS and immediately analyzed by flow cytometry.
Oligodeoxynucleotides were purchased from Invitrogen (Carlsbad, Calif.). […]
A general note: Tetrazolium dyes change colour on reduction, which living cells bring about.

For “5′-d(GGTGGTGGTGGTTGTGGTGGTGGTGG) [AS1411]”, the “effect on DNA replication and cell division” value in the data set on U937 leukemia cells was “inhibited DNA replication and cell division”. In the data set on U937 leukemia cells, the “effect on protein synthesis” value is “not inhibited”. The “induction of apoptosis markers” value in the data set on U937 leukemia cells (1 μM, 72 h, UV irradiation as positive control) was “does not induce DNA laddering, PARP cleavage, or Caspase-3 activation”. Besides, in the data set with U937 leukemia cells (72 h), the “cell death morphology in electron micrographs” value is reported as “necrosis-like cell death”. Moreover, the “Cells respond?” value with MCF7 was “Yes”; in the data set on RCC4 [1], “Yes”; in the data set with BEAS2B [2], “No”; with A549 [3], “Yes”; with DU145 (DU145, Cancer, prostate) it was “Yes”; in the data set on MDA-MB-231 it was “Yes”. Besides, the “Cells respond?” value in the data set with SK-N-DZ is on record as “Yes”; with RWPE1 [4] it was “No”; in the data set on CHO [5] it was “No”. In addition, the “sensitivity of cells to AS1411” value in the data set on DU145 was “sensitive”. For the same substance, the “Update by MP?” value in the data set on RCC4 [6] is listed as “Yes”; in the data set with BEAS2B [7], “Low”; in the data set on A549 [8] it was “Yes”; in the data set on RWPE1 [9] it was “No”; in the data set on CHO [10] it was “No”.
Turning to “5′-Fluor-d(TTTCCTCCTCCTCCTTCTCCTCCTCCTCC) (DNA TTTCCTCCTCCTCCTTCTCCTCCTCCTCC; DNA, 5' {Fluor}, backbone and methylation of C not given here) [FL-CRO, reference compound]”, in the data set with Cells, the antiproliferative activity entry is listed as “no antiproliferative activity”.
